Assay results from US20240343704A1, “HALO-SUBSTITUTED AMINO PYRIDINE COMPOUNDS AS INHIBITORS OF THE HAEMATOPOIETIC PROGENITOR KINASE 1 (HPK1)” (priority 2021, published 2024).
Where two headings read alike, the source gives them in different places.

Columns and labels:
[1] = target: T1, Recombinant (1-346) HPK1 (h) (Homo sapiens, UniProt Q92918); test: HPK1 Human STE Kinase Enzymatic Radiometric Assay; format: biochemical
T1 construct: Recombinant (1-346) HPK1 (h) is incubated with 8 mM MOPS pH 7.0
T1 sequence (Q92918 1-346): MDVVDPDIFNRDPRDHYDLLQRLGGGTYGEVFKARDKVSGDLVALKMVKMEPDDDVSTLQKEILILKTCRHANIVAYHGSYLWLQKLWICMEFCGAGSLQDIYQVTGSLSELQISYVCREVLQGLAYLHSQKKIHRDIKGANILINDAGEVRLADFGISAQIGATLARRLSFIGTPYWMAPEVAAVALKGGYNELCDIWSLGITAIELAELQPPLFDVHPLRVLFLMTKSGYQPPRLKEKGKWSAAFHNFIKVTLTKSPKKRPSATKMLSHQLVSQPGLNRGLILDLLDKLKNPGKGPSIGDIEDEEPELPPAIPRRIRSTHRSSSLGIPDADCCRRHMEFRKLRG
Method: A stock solution of 10 mM of test compound is prepared in DMSO. The compound plate was prepared by 3-fold and 9-point serial dilutions. […] The reaction is initiated by The addition of the Mg/ATP mix. After incubation for 40 minutes at RT, the reaction is stopped by the addition of phosphoric acid to a concentration of 0.5%.

[2] = target: Lck (h) (Homo sapiens, UniProt P06239); test: Lck Human  Kinase Enzymatic Radiometric Assay; format: biochemical
Procedure, shortened: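 Substrate 33P-incorporation measured by scintillation counting after spotting on P30 filtermat and phosphoric acid washes. Human Lck reacted 40 min at RT in 50 mM Tris pH 7.5 with 10 mM MgAcetate, [gamma-33P]-ATP, 250 uM Cdc2 peptide, 0.1 mM EGTA and 0.1 mM Na3VO4.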

Sequence of Lck (h) (P06239 whole entry): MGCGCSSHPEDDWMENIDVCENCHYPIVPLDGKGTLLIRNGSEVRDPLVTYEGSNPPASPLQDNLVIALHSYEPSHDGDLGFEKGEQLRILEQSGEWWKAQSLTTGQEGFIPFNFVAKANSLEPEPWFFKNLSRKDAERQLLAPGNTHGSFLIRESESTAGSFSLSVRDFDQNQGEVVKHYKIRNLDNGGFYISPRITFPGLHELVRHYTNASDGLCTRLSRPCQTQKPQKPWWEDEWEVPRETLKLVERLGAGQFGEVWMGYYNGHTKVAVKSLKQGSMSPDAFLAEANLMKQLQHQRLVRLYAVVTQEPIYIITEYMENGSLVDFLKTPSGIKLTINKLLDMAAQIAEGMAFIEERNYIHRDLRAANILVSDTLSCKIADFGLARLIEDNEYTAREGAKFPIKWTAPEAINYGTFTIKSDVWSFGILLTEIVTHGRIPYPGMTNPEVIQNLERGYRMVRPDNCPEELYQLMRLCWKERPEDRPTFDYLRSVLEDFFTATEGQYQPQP

Row | SMILES | IC50 ([1]; read-out: HPK1 IC50 nM Range*) | IC50 ([2]; read-out: Lck IC50 nM Range*) | IC50 [1] | IC50 [2]
1 | Nc1nc(F)c(-c2ccc(N3CCNCC3)c(C(F)(F)F)c2)cc1-c1ccc2c(c1)CCNC2=O [I-185, 6-(2-amino-6-fluoro-5-(4-(piperazin-1-yl)-3-(trifluoromethyl)phenyl)pyridin-3-yl)-3,4-dihydroisoquinolin-1(2H)-one] | 0.1 to 10 nM | > 1000 nM |  | 
2 | Nc1nc(F)c(-c2ccc(OC3CCN(CC(F)(F)F)CC3)cc2)cc1-c1ccc2c(c1)CCNC2=O [I-186, 6-(2-amino-6-fluoro-5-(4-((1-(2,2,2-trifluoroethyl)piperidin-4-yl)oxy)phenyl)pyridin-3-yl)-3,4-dihydroisoquinolin-1(2H)-one] | 11 to 100 nM | > 1000 nM |  | 
3 | Nc1nc(F)c(-c2ccc(OC3CCN(CCC(F)(F)F)CC3)cc2)cc1-c1ccc2c(c1)CCNC2=O [I-187, 6-(2-amino-6-fluoro-5-(4-((1-(3,3,3-trifluoropropyl)piperidin-4-yl)oxy)phenyl)pyridin-3-yl)-3,4-dihydroisoquinolin-1(2H)-one] | 0.1 to 10 nM | > 1000 nM |  | 
4 | Nc1nc(F)c(-c2ccc(OC3CCN(CCCC(F)(F)F)CC3)cc2)cc1-c1ccc2c(c1)CCNC2=O [I-188, 6-(2-amino-6-fluoro-5-(4-((1-(4,4,4-trifluorobutyl)piperidin-4-yl)oxy)phenyl)pyridin-3-yl)-3,4-dihydroisoquinolin-1(2H)-one] | 0.1 to 10 nM | > 1000 nM |  | 
5 | COCCN1CCC(Oc2ccc(-c3cc(-c4ccc5c(c4)CCNC5=O)c(N)nc3F)cc2)CC1 [I-189, 6-(2-amino-6-fluoro-5-(4-((1-(2-methoxyethyl)piperidin-4-yl)oxy)phenyl)pyridin-3-yl)-3,4-dihydroisoquinolin-1(2H)-one] | 0.1 to 10 nM | > 1000 nM |  | 
6 | CC(=O)N1CCC2(CC1)OCc1cc(-c3cc(-c4ccc5c(c4)CCNC5=O)c(N)nc3F)ccc1O2 [I-191, 6-(5-(1′-acetyl-4H-spiro[benzo[d][1,3]dioxine-2,4′-piperidin]-6-yl)-2-amino-6-fluoropyridin-3-yl)-3,4-dihydroisoquinolin-1(2H)-one] |  |  | 0.1 to 10 nM | > 1000 nM
7 | CC(=O)N1CCC2(CC1)CC(=O)c1cc(-c3cc(-c4ccc5c(c4)CCNC5=O)c(N)nc3F)ccc1O2 [I-192, 1′-acetyl-6-(6-amino-2-fluoro-5-(1-oxo-1,2,3,4-tetrahydroisoquinolin-6-yl)pyridin-3-yl)spiro[chromane-2,4′-piperidin]-4-one] | 0.1 to 10 nM | > 1000 nM |  | 
8 | CC(=O)N1CCC2(CCc3cc(-c4cc(-c5ccc6c(c5)CCNC6=O)c(N)nc4F)ccc3O2)CC1 [I-193, 6-(5-(1′-acetylspiro[chromane-2,4′-piperidin]-6-yl)-2-amino-6-fluoropyridin-3-yl)-3,4-dihydroisoquinolin-1(2H)-one] | 0.1 to 10 nM | > 1000 nM |  | 
9 | CC(=O)N1CCC(Oc2ccc(-c3cc(-c4ccc5c(c4)CCNC5=O)c(N)nc3F)cc2C#N)CC1 [I-194, 2-((1-acetylpiperidin-4-yl)oxy)-5-(6-amino-2-fluoro-5-(1-oxo-1,2,3,4-tetrahydroisoquinolin-6-yl)pyridin-3-yl)benzonitrile] | 0.1 to 10 nM | > 1000 nM |  | 
10 | Nc1nc(F)c(-c2ccc3c(c2)COC2(CCN(CC(F)(F)F)CC2)O3)cc1-c1ccc2c(c1)CCNC2=O [I-195, 6-(2-amino-6-fluoro-5-(1′-(2,2,2-trifluoroethyl)-4H-spiro[benzo[d][1,3]dioxine-2,4′-piperidin]-6-yl)pyridin-3-yl)-3,4-dihydroisoquinolin-1(2H)-one] | 11 to 100 nM | > 1000 nM |  | 
11 | Nc1nc(F)c(-c2ccc3c(c2)C(=O)CC2(CCN(CC(F)(F)F)CC2)O3)cc1-c1ccc2c(c1)CCNC2=O [I-196, 6-(6-amino-2-fluoro-5-(1-oxo-1,2,3,4-tetrahydroisoquinolin-6-yl)pyridin-3-yl)-1′-(2,2,2-trifluoroethyl)spiro[chromane-2,4′-piperidin]-4-one] | 0.1 to 10 nM | > 1000 nM |  | 
12 | Nc1nc(F)c(-c2ccc3c(c2)CCC2(CCN(CC(F)(F)F)CC2)O3)cc1-c1ccc2c(c1)CCNC2=O [I-197, 6-(2-amino-6-fluoro-5-(1′-(2,2,2-trifluoroethyl)spiro[chromane-2,4′-piperidin]-6-yl)pyridin-3-yl)-3,4-dihydroisoquinolin-1(2H)-one] | 11 to 100 nM | > 1000 nM |  | 
13 | N#Cc1cc(-c2cc(-c3ccc4c(c3)CCNC4=O)c(N)nc2F)ccc1OC1CCN(CC(F)(F)F)CC1 [I-198, 5-(6-amino-2-fluoro-5-(1-oxo-1,2,3,4-tetrahydroisoquinolin-6-yl)pyridin-3-yl)-2-((1-(2,2,2-trifluoroethyl)piperidin-4-yl)oxy)benzonitrile] | 11 to 100 nM | > 1000 nM |  | 
14 | CC(=O)N1CCC(Oc2ccc(-c3cc(-c4ccc5c(c4)CCNC5=O)c(N)nc3F)cc2C(F)(F)F)CC1 [I-199, 6-(5-(4-((1-acetylpiperidin-4-yl)oxy)-3-(trifluoromethyl)phenyl)-2-amino-6-fluoropyridin-3-yl)-3,4-dihydroisoquinolin-1(2H)-one] | 11 to 100 nM | > 1000 nM |  | 
15 | CC(=O)N1CCN(c2ccc(-c3cc(-c4ccc5c(c4)CCNC5=O)c(N)nc3F)cc2C(F)(F)F)CC1 [I-200, 6-(5-(4-(4-acetylpiperazin-1-yl)-3-(trifluoromethyl)phenyl)-2-amino-6-fluoropyridin-3-yl)-3,4-dihydroisoquinolin-1(2H)-one] | 0.1 to 10 nM | > 1000 nM |  | 
16 | Nc1nc(F)c(-c2ccc(OC3CCN(CC(F)(F)F)CC3)c(C(F)(F)F)c2)cc1-c1ccc2c(c1)CCNC2=O [I-201, 6-(2-amino-6-fluoro-5-(4-((1-(2,2,2-trifluoroethyl)piperidin-4-yl)oxy)-3-(trifluoromethyl)phenyl)pyridin-3-yl)-3,4-dihydroisoquinolin-1(2H)-one] | 101 to 1000 nM | > 1000 nM |  | 
17 | Nc1nc(F)c(-c2ccc(N3CCN(CC(F)(F)F)CC3)c(C(F)(F)F)c2)cc1-c1ccc2c(c1)CCNC2=O [I-202, 6-(2-amino-6-fluoro-5-(4-(4-(2,2,2-trifluoroethyl)piperazin-1-yl)-3-(trifluoromethyl)phenyl)pyridin-3-yl)-3,4-dihydroisoquinolin-1(2H)-one] | 11 to 100 nM | > 1000 nM |  | 
18 | Nc1nc(F)c(-c2ccc(OC3CCN(C(=O)C4CC4)CC3)cc2)cc1-c1ccc2c(c1)CCNC2=O [I-203, 6-(2-amino-5-(4-((1-(cyclopropanecarbonyl)piperidin-4-yl)oxy)phenyl)-6-fluoropyridin-3-yl)-3,4-dihydroisoquinolin-1(2H)-one] | 0.1 to 10 nM | > 1000 nM |  | 
19 | Nc1nc(F)c(-c2ccc3c(c2)OCCCO3)cc1-c1ccc2c(c1)CCNC2=O [I-204, 6-(2-amino-5-(3,4-dihydro-2H-benzo[b][1,4]dioxepin-7-yl)-6-fluoropyridin-3-yl)-3,4-dihydroisoquinolin-1(2H)-one] | 0.1 to 10 nM | > 1000 nM |  | 
20 | Nc1nc(F)c(-c2ccc3c(c2)OCCCO3)cc1-c1cc2c(cc1F)C(=O)NCC2 [I-205, 6-(2-amino-5-(3,4-dihydro-2H-benzo[b][1,4]dioxepin-7-yl)-6-fluoropyridin-3-yl)-7-fluoro-3,4-dihydroisoquinolin-1(2H)-one] | 0.1 to 10 nM | > 1000 nM |  | 
21 | CN1CCCN(S(=O)(=O)c2ccc(-c3cc(-c4ccc5c(c4)CCNC5=O)c(N)nc3F)cc2)CC1 [I-206, 6-(2-amino-6-fluoro-5-(4-((4-methyl-1,4-diazepan-1-yl)sulfonyl)phenyl)pyridin-3-yl)-3,4-dihydroisoquinolin-1(2H)-one] | 0.1 to 10 nM | > 1000 nM |  | 
22 | CN1CCN(S(=O)(=O)c2ccc(-c3cc(-c4ccc5c(c4)CCNC5=O)c(N)nc3F)cc2)CC1 [I-207, 6-(2-amino-6-fluoro-5-(4-((4-methylpiperazin-1-yl)sulfonyl)phenyl)pyridin-3-yl)-3,4-dihydroisoquinolin-1(2H)-one] | 0.1 to 10 nM | > 1000 nM |  | 
23 | COCCN1CCC(OC)(c2ccc(-c3cc(-c4ccc5c(c4)CCNC5=O)c(N)nc3F)cc2)CC1 [I-208, 6-(2-amino-6-fluoro-5-(4-(4-methoxy-1-(2-methoxyethyl)piperidin-4-yl)phenyl)pyridin-3-yl)-3,4-dihydroisoquinolin-1(2H)-one] | 0.1 to 10 nM | > 1000 nM |  | 
24 | CC(C)N1CCN(c2ccc(-c3cc(-c4cc5c(cc4F)C(=O)NCC5)c(N)nc3Cl)cc2)CC1 [I-209, 6-(2-amino-6-chloro-5-(4-(4-isopropylpiperazin-1-yl)phenyl)pyridin-3-yl)-7-fluoro-3,4-dihydroisoquinolin-1(2H)-one] | 0.1 to 10 nM | > 1000 nM |  | 
25 | Nc1nc(F)c(-c2ccc(N3CCN(CC4CC4)CC3)cc2)cc1-c1ccc2c(c1)CCNC2=O [I-210, 6-(2-amino-5-(4-(4-(cyclopropylmethyl)piperazin-1-yl)phenyl)-6-fluoropyridin-3-yl)-3,4-dihydroisoquinolin-1(2H)-one] | 0.1 to 10 nM | 101 to 1000 nM |  | 
26 | CCN1CCN(c2ccc(-c3cc(-c4cc5c(cc4F)C(=O)NCC5)c(N)nc3F)cc2)CC1 [I-211, 6-(2-amino-5-(4-(4-ethylpiperazin-1-yl)phenyl)-6-fluoropyridin-3-yl)-7-fluoro-3,4-dihydroisoquinolin-1(2H)-one] | 0.1 to 10 nM | > 1000 nM |  | 
